For series [1] the following is noted: small intestine of a living body; cited from earlier work.
Series [2] has as its system small intestinal tissue of a living body. The note with it: in vitro; cited from earlier work.
The nature of series [3]: Midazolam permeability of intestinal epithelial cells (apical to basolateral, cell culture insert). In kind it is in vitro ADME. The note with it: human; for Papp A→B at 60 min, 10 μmol/L: 10 μmol/L midazolam apical pH 6.5, basolateral pH 7.4, 37° C., read-out: Apparent permeability coefficient; for Papp at 60 min, 10 μmol/L: read-out: Apparent permeability coefficient after correction. As for the experimental part: The midazolam permeability of the intestinal epithelial cells obtained in Comparative Examples 1 and Examples 1 to 5 was evaluated. After the end of the induction of differentiation, HBSS (pH 6.5) was added to the apical side and HBSS (pH 7.4) was added to the lower bottom (basolateral) side, and pre-incubation was carried out at 37° C. for 60 minutes. Then, HBSS (pH 6.5) containing 10 μmol/L midazolam was added to the apical side, and HBSS (pH 7.4) was added to the lower bottom (basolateral) side, and incubation was carried out at 37° C. for 60 minutes. A sample was collected from the lower bottom (basolateral) side every 15 minutes. The amount of each compound (unchanged form) was quantified using a liquid chromatography-mass spectrometer (LC-MS/MS). The apparent permeability coefficient (Papp) was calculated from the quantification result.
The apparent permeability coefficient was corrected by using the scaling factor x for the apparent permeability coefficient of Example 4 obtained in Test Example 6. At this time, the following expression was used.
The permeation amount per unit time=(the B60 substrate amount−x ×the difference in the B60 substrate amount due to the presence or absence of the addition of the metabolism inhibitor)/the permeation time

The test system of series [4] is intestinal epithelial cells. Description: Fg of midazolam calculated from the permeation test (Expression 1 / Expression 2). To be noted: cells of Example 4. In kind it is in vitro ADME, human. As for the experimental part: Fg=(the B60 substrate amount+the cell 60 substrate amount)/(the B60 substrate amount +cell 60 substrate amount+the total 60 metabolite amount) (Expression 1)
The B60 substrate amount: The mass of the substrate permeated to the B side 60 minutes after the test substance serving as a substrate was added to the A side.
The cell 60 substrate amount: The mass of the substrate accumulated in the cells 60 minutes after the test substance serving as a substrate was added to the A side.
The total 60 metabolite amount: Total amount of the metabolite accumulated on the A, on the B side, and in the cells 60 minutes after the test substance serving as a substrate was added to the A side.

Where two headings read alike, the source gives them in different places.

As for `Cc1ncc2n1-c1ccc(Cl)cc1C(c1ccccc1F)=NC2` [midazolam], in series [1], the “Fa (absorption rate in the intestinal tract)” value was 1.0. The apparent permeability coefficient in series [2] is 5 ×10⁻⁶ cm/s. Besides, the Papp A→B at 60 min, 10 μmol/L in series [3] (cells of Comparative Example 1) turned out to be 48 ×10⁻⁶ cm/s; in series [3] (cells of Example 1) it was 30 ×10⁻⁶ cm/s; in series [3] (cells of Example 2) it was 32 ×10⁻⁶ cm/s; in series [3] (cells of Example 3), 33 ×10⁻⁶ cm/s; in series [3] (cells of Example 4), 31 ×10⁻⁶ cm/s; in series [3] (cells of Example 5), 31 ×10⁻⁶ cm/s. Moreover, the Papp at 60 min, 10 μmol/L in series [3] (cells of Example 4, scaling factor x = 2) was determined as 21.9 ×10⁻⁶ cm/s; in series [3] (cells of Example 4, scaling factor x = 3), 15.2 ×10⁻⁶ cm/s; in series [3] (cells of Example 4, scaling factor x = 4), 8.6 ×10⁻⁶ cm/s; in series [3] (cells of Example 4, scaling factor x = 5), 1.9 ×10⁻⁶ cm/s; in series [3] (cells of Example 4, scaling factor x = 5.2), 0.6 ×10⁻⁶ cm/s. In addition, the “Fg simply calculated by Expression 1” value in series [4] (no scaling factor) is given as 0.83. Also, the Fg after correction in series [4] (scaling factor x = 1) is 0.83; in series [4] (scaling factor x = 2), 0.70; in series [4] (scaling factor x = 4), 0.54; in series [4] (scaling factor x = 6), 0.44; in series [4] (scaling factor x = 8), 0.37; in series [4] (scaling factor x = 10), 0.32. Also, the Fg after correction in series [4] (scaling factor x = 12) was 0.28.

(Values after patent US20230126568A1, “PRODUCTION METHOD FOR […] AND UTILIZATION THEREOF” (FUJIFILM Corporation, priority 2020, published 2023).)
